These results are taken from PubChem BioAssay (NCI).

Among the test systems are TK-10 renal; SNB-75 CNS; UO-31 renal; HOP-62 NSCLC; NCI-H522 lung; A549 NSCLC; HL-60(TB) leukemia; NCI-H460 lung; EKVX NSCLC; RXF 393 renal.
What all share (experiment): inhibition of tumour cell growth, NCI panel, 48 h

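Assay format: 96-well plates, 48-hour exposure. Abbreviation: GI50, concentration required for 50% inhibition of growth. TGI: total growth inhibition.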

On to `CC12Nc3ccccc3C1=C(c1ccccc1)CC1C(=O)OC(=O)C12` (configuration not stated), for which the TGI with TK-10 renal was > 100 µM; in the assay with SNB-75 CNS, 73.7 µM; in the assay with UO-31 renal, > 100 µM; in the assay with HOP-62 NSCLC it was > 100 µM; in the assay with NCI-H522 lung it was > 100 µM; in the assay on A549 NSCLC, > 100 µM. The TGI in the assay with HL-60(TB) leukemia, in the assay with NCI-H460 lung, with EKVX NSCLC and in the assay on RXF 393 renal was > 100 µM in each case.

Consider `Nc1cn(C2OC(CC(c3ccccc3)(c3ccccc3)c3ccccc3)C(O)C2O)c(=O)[nH]c1=O` (configuration not stated), for which the TGI in the assay on TK-10 renal is 96.2 µM; in the assay on SNB-75 CNS, > 100 µM; in the assay on UO-31 renal it was > 100 µM; in the assay on HOP-62 NSCLC, 63.1 µM; in the assay on NCI-H522 lung, 38.3 µM; in the assay on A549 NSCLC it was 83.1 µM. Also, the TGI in the assay on HL-60(TB) leukemia is 36.9 µM; in the assay with NCI-H460 lung, 39.5 µM; in the assay with EKVX NSCLC, > 100 µM; in the assay with RXF 393 renal, 21.4 µM.

As for `NC(N)=NN=c1c(=O)c2ccccc2c1=O`, the GI50 was 22.6 µM in the assay with TK-10 renal; 11.4 µM in the assay on SNB-75 CNS; 6.81 µM in the assay on UO-31 renal; 9 µM in the assay on HOP-62 NSCLC; 17.7 µM in the assay on NCI-H522 lung; 12.4 µM in the assay on A549 NSCLC. Further, the GI50 is 21.5 µM with HL-60(TB) leukemia, 2.92 µM with NCI-H460 lung, 18.7 µM in the assay on EKVX NSCLC and 13.1 µM in the assay with RXF 393 renal. Further, the TGI turned out to be 37.4 µM in the assay on TK-10 renal; 23.7 µM in the assay with SNB-75 CNS; 20.1 µM in the assay with UO-31 renal; 21 µM with HOP-62 NSCLC; 32.8 µM with NCI-H522 lung; 30.5 µM in the assay on A549 NSCLC. The TGI came out at 48.6 µM in the assay with HL-60(TB) leukemia, 7.14 µM in the assay on NCI-H460 lung, 34.8 µM with EKVX NSCLC and 25.9 µM in the assay with RXF 393 renal.

For the molecule `OCC1NC(COC2OC(CO)C(O)C(O)C2O)C(O)C(O)C1O` (configuration not stated), the TGI in the assay with TK-10 renal, with SNB-75 CNS, in the assay on UO-31 renal, with NCI-H522 lung, in the assay on A549 NSCLC and in the assay on HL-60(TB) leukemia was > 100 µM throughout. In addition, the TGI in the assay on NCI-H460 lung and with RXF 393 renal was > 100 µM in each case.

Regarding `O/N=C1/CCCC/C1=C/C=C/c1ccccc1`, the TGI in the assay with TK-10 renal worked out at 62 µM; with SNB-75 CNS, 75.3 µM; in the assay with UO-31 renal, 49.4 µM; in the assay with NCI-H522 lung, 34.1 µM; in the assay on A549 NSCLC it was 54.9 µM; in the assay with HL-60(TB) leukemia, 41.2 µM. Further, the TGI was 53.8 µM in the assay with NCI-H460 lung and 41.5 µM in the assay on RXF 393 renal.

As for `Clc1ccc(-c2cc(-c3ccccc3)nc(N3CCN(CCCNc4ccnc5cc(Cl)ccc45)CC3)n2)cc1`, the GI50 in the assay on TK-10 renal was 1.75 µM; in the assay with SNB-75 CNS, 1.49 µM; in the assay with UO-31 renal, 1.55 µM; in the assay with HOP-62 NSCLC it was 1.2 µM; in the assay with NCI-H522 lung it was 1.78 µM; in the assay with A549 NSCLC, 1.77 µM. For the same molecule, the GI50 in the assay on HL-60(TB) leukemia was 1 µM; in the assay with NCI-H460 lung, 1.56 µM; in the assay on RXF 393 renal, 1.25 µM. The TGI in the assay on TK-10 renal is 3.26 µM; with SNB-75 CNS, 2.85 µM; in the assay with UO-31 renal it was 2.9 µM; with HOP-62 NSCLC, 2.78 µM; with NCI-H522 lung it was 3.54 µM; with A549 NSCLC, 3.75 µM. Moreover, the TGI came out at 2.83 µM in the assay on HL-60(TB) leukemia, 3.1 µM in the assay with NCI-H460 lung and 2.58 µM with RXF 393 renal.

With `Cc1cccc2c(C3=C(c4cn(C)c5ccccc45)C(=O)NC3=O)cn(C)c12`, the GI50 is > 25 µM in the assay with TK-10 renal; 1.15 µM with SNB-75 CNS; > 21.5 µM in the assay on UO-31 renal; 13.4 µM with HOP-62 NSCLC; > 17 µM in the assay with NCI-H522 lung; > 25 µM with A549 NSCLC. Also, the GI50 in the assay with HL-60(TB) leukemia was > 25 µM; in the assay with NCI-H460 lung, > 21.8 µM; with RXF 393 renal it was 6.16 µM. Also, the TGI with TK-10 renal, in the assay with SNB-75 CNS, in the assay with UO-31 renal, in the assay with HOP-62 NSCLC, in the assay on NCI-H522 lung and with A549 NSCLC was > 25 µM each time. Besides, the TGI in the assay with HL-60(TB) leukemia is > 25 µM; in the assay with NCI-H460 lung it was > 25 µM; in the assay on RXF 393 renal it was 24.4 µM.

On to `Cc1cc(S(=O)(=O)/N=C(\N)Nc2cccc(O)c2)c(SCc2ccccc2)cc1Cl`, for which the GI50 in the assay on TK-10 renal was 21.2 µM; with SNB-75 CNS, 10.8 µM; with UO-31 renal it was 10.8 µM; in the assay on HOP-62 NSCLC, 15.1 µM; with NCI-H522 lung, 13.9 µM; in the assay with A549 NSCLC it was 14.8 µM. In addition, the figures for the GI50 with HL-60(TB) leukemia, in the assay with EKVX NSCLC and with RXF 393 renal were 12.9 µM, 12.7 µM and 16.2 µM, respectively. Further, the TGI with TK-10 renal is 49.5 µM; with SNB-75 CNS it was 26.5 µM; in the assay with UO-31 renal, 27.6 µM; in the assay with HOP-62 NSCLC, 31.7 µM; in the assay on NCI-H522 lung, 41.8 µM; in the assay with A549 NSCLC, > 100 µM. In addition, the TGI in the assay with HL-60(TB) leukemia amounted to 62.9 µM; in the assay with EKVX NSCLC, 37.2 µM; in the assay on RXF 393 renal it was 39.9 µM.

Consider `Nc1nc(N)c2c(n1)NC(c1sc(Cl)nc1Cl)CC(c1ccccc1)=N2` (configuration not stated), for which the GI50 in the assay on TK-10 renal was 11.5 µM; with SNB-75 CNS, 1.63 µM; in the assay with UO-31 renal it was 3.04 µM; in the assay on HOP-62 NSCLC it was 3.72 µM; with NCI-H522 lung it was 3.27 µM; in the assay with A549 NSCLC it was 5.02 µM. For the same molecule, the GI50 was 2.04 µM in the assay on HL-60(TB) leukemia, 4.05 µM in the assay on NCI-H460 lung and 2.48 µM in the assay with RXF 393 renal. The TGI in the assay on TK-10 renal came out at 24.1 µM; in the assay with SNB-75 CNS, 7.59 µM; in the assay with UO-31 renal, 15.6 µM; in the assay on HOP-62 NSCLC, 18 µM; in the assay with NCI-H522 lung it was 14.3 µM; in the assay on A549 NSCLC, 19.4 µM. Moreover, the TGI with HL-60(TB) leukemia turned out to be 8.22 µM; in the assay with NCI-H460 lung, 14.6 µM; in the assay on RXF 393 renal, 9.5 µM.

Turning to `C/C(=N\Nc1ccccc1)c1sc(-c2nc(C)c(/C(C)=N/Nc3ccccc3)s2)nc1C`, the TGI in the assay with TK-10 renal is > 100 µM; in the assay on SNB-75 CNS, > 77.1 µM; with UO-31 renal it was > 60.7 µM; in the assay with NCI-H522 lung, 48.3 µM; with A549 NSCLC, > 35.8 µM; with HL-60(TB) leukemia it was > 100 µM. The figures for the TGI in the assay on NCI-H460 lung, with EKVX NSCLC and in the assay on RXF 393 renal were > 100 µM, > 100 µM and > 87.9 µM, respectively.
